Measurements taken from patent publication US11964943B2, “3,5-diarylidenyl-n-substituted-piperid-4-one-derived inhibitors of Stat3 pathway activity and uses thereof” (priority 2017, dated 2024).

Key:
Assay type in all cases: cell-based
[1] = system: survivin, Bcl-2, Bcl-xL, MMP-9, cleaved PARP, cleaved caspase-3; assay: Immunoblotting of Stat3 downstream targets and apoptosis markers
Procedure: (§1) Whole cell lysates were prepared by incubation of harvested, trypsinised cells with CelLytic™ lysis buffer (Sigma-Aldrich) supplemented with 1× protease and 1× phosphatase inhibitors (Roche). Protein quantification was carried out using a protein assay kit (Bio-Rad). 40 μg of the lysates were denatured by heating for 5 min at 95° C. in sample buffer containing 100 mM Tris-Cl (pH 6.8), 4% SDS, 10% 2-mercaptoethanol, 20% glycerol, and 0.02% bromophenol blue. Precision Plus Protein Dual colour standards (Bio-Rad) were used as a molecular weight reference. For the detection of STAT3, pSTAT3, α/β tubulin, cleaved PARP, Bcl-2, Bcl-xL, FANCD2, BRCA1, EME1 and MUS81, proteins were separated on a NuPAGE 7% Tris-acetate gel (Life Technologies) and subsequently transferred to polyvinylidene difluoride membranes (Immobilon®-P transfer membrane; Millipore). […] Membranes were blocked for 1 h at ambient temperature in a blocking buffer containing 5% w/v Bovine Serum Albumin (BSA; Sigma-Aldrich) in 1×TBS, 0.1% Tween-20. All proteins were identified by incubation in a 1:1000 dilution of the respective polyclonal antibodies (Cell signaling) in blocking buffer overnight at 4° C. and subsequent incubation for 1 h with an anti-rabbit or anti-mouse secondary antibody (Cell signalling) at a dilution of 1:1000. The α/β tubulin (1:2000; Cell Signaling) and the anti-phospho-histone H2AX Antibody (1:500; Millipore) were used in the denoted dilutions. Antibody binding was visualized by enhanced chemiluminescence (Amersham) on autoradiography film (Kodak-X-Omat). Alternatively Images were captured by the GelDoc-It Imaging System Fusion Fx7 (Vilber Lourmat, Germany).
as §1, with “Immunoblotting. Whole” for “Whole”, “CelLytic™ M” for “CelLytic™”, “pSTAT3, a/0” for “pSTAT3, α/β”, “in 1×TBS” for “in 1×TBS,”, “(Cell signalling)” for “(Cell signaling)”

[2] = system: DU145 cells; assay: Colony formation assay with paclitaxel; conditions: 0.4 μM IE-8 + 0.003 μM paclitaxel, 10 days
Procedure: DU145 cells were seeded at 1000 cells/well in 6-well plates and allowed to adhere overnight. Cells were treated after seeding with IE-8, paclitaxel, and a combination thereof, and incubated without any further manipulation for 10 days until the control (untreated) wells had <200 colonies formed. Colonies were fixed with ice-cold 100% Methanol, washed with PBS, stained with crystal violet (0.5% w/v) for 5 minutes and counted using a colony-counting function of the Fusion 15.12 software.

[3] = system: nuclear Stat3; assay: Confocal microscopy of Stat3 localisation; conditions: DU145, 5 μM, 5 h
Procedure: For Stat3, pStat3 staining, 2.5×10^4 cells/ml were plated on 13-mm glass cover slip (VWR) in 24 well plates, allowed to adhere and processed the next day. […] Cells were blocked in PBS 5% BSA for 1 h at ambient temperature. Respective proteins were identified by incubation for 4 h with anti-Stat3 and anti-pStat3 rabbit polyclonal antibodies (1:1000, Cell signalling) or anti-phospho-Histone H2A.X mouse monoclonal (1:500; Millipore) diluted in a PBS 1% BSA buffer. Cells were incubated with a secondary fluorescent conjugated antibody Alexa Fluor 488 (1:500; Life Technologies) for 2 h at RT. […]
(§2) Cell nuclei and protein levels were visualized by confocal microscopy (objective ×40, Leica TCS SP2). […] In the case of IE-8 detection only, the blue fluorescent agent was excited with a UV-laser (364 nm) and detected using the DAPI filter. PI was excited with the 488 line of an argon-ion laser and detected at 642 nm. The fluorescence of IE-8 was detected and imaged by z-stack acquisition using the Leica SP2 microscope software. […]
as §2, with “Confocal microscopy.” for “Cell nuclei and protein levels were visualized by confocal microscopy (objective ×40, Leica TCS SP2).”, “8 h” for “IE-8”

[4] = system: A-10 smooth muscle cells; assay: Microtubule disruption by indirect immunofluorescence; conditions: 30 μM
[5] = A2780-cisplatin resistant cells

Compound | induction of apoptosis (cleaved PARP, cleaved caspase 3, Annexin-V/PI) [1, 5] | inhibition of downstream Stat3 targets Bcl-xL and survivin [1, 5] | downregulation of MMP-9 ([1]; A2780-cisplatin resistant cells, IL-6 stimulated) | induction of apoptosis (cleaved PARP) ([1]; DU145 and A549 cells, 18 h) | downregulation of survivin and Bcl-2 ([1]; DU145 cells, 18 h) | colony formation [2] | levels of nuclear Stat3 [3] | effect on microtubules [4]
COc1cc(/C=C2\CN(c3ccccc3)C/C(=C\c3cc(OC)c(OC)c(OC)c3)C2=O)cc(OC)c1OC [IE-8, 3,5-Di(3,4,5-trimethoxybenzylidene)-1-phenylpiperidin-4-one] | induced apoptosis | capable of inhibiting | downregulates the matrix metalloproteinase MMP-9 | induced cell death via apoptosis | downregulated the transcription of key Stat3 target genes | no colonies were formed | the levels of nuclear Stat3 were decreased | 
3,5-Di(3,4,5-trimethoxybenzylidene)-1-phenylpiperidin-4-one [IE-8] |  |  |  |  |  |  |  | did not show any effect on the microtubules
